Source: ChEMBL document CHEMBL1143427, “Interactions of ceftobiprole with beta-lactamases from molecular classes A to D” (Antimicrob Agents Chemother, 2007)
≈ marks a conversion by molar mass, not a printed value.

Assays:
Assay type in all cases: functional
[1] = tested on: Providencia stuartii; experiment: Antibacterial activity against Providencia stuartii 2772 producing beta lactamase AmpC by broth microdilution method
[2] = tested on: Pseudomonas aeruginosa; experiment: Antibacterial activity against Pseudomonas aeruginosa 7052 producing beta lactamase VIM2 by broth microdilution method
[3] = tested on: Escherichia coli; experiment: Antibacterial activity against Escherichia coli producing beta lactamase TEM1 by broth microdilution method
[4] = tested on: Morganella morganii; experiment: Antibacterial activity against Morganella morganii 2574 producing beta lactamase AmpC by broth microdilution method
[5] = tested on: Escherichia coli; experiment: Antibacterial activity against Escherichia coli 6226 producing beta lactamase KPC2 by broth microdilution method
[6] = tested on: Pseudomonas aeruginosa; experiment: Antibacterial activity against Pseudomonas aeruginosa MK-1184 producing beta lactamase AmpC by broth microdilution method
[7] = tested on: Serratia marcescens; experiment: Antibacterial activity against Serratia marcescens 7554 producing beta lactamase SME3 by broth microdilution method
[8] = tested on: Pseudomonas aeruginosa; experiment: Antibacterial activity against Pseudomonas aeruginosa HPA101-1477 producing beta lactamase IMP1 by broth microdilution method
[9] = tested on: Pseudomonas aeruginosa; experiment: Antibacterial activity against Pseudomonas aeruginosa 4083 producing beta lactamase OXA10 by broth microdilution method
[10] = tested on: Klebsiella oxytoca; experiment: Antibacterial activity against Klebsiella oxytoca 4076 producing beta lactamase K1 by broth microdilution method
[11] = tested on: Pseudomonas aeruginosa; experiment: Antibacterial activity against Pseudomonas aeruginosa 18SH producing beta lactamase AmpC by broth microdilution method
[12] = tested on: Pseudomonas aeruginosa; experiment: Antibacterial activity against Pseudomonas aeruginosa 4352 producing beta lactamase AmpC by broth microdilution method
[13] = tested on: Serratia marcescens; experiment: Antibacterial activity against Serratia marcescens 4104 producing beta lactamase AmpC by broth microdilution method
[14] = tested on: Escherichia coli; experiment: Antibacterial activity against Escherichia coli 11732 producing beta lactamase CTX-M-15 by broth microdilution method
[15] = tested on: Klebsiella pneumoniae; experiment: Antibacterial activity against Klebsiella pneumoniae 4094 producing beta lactamase TEM26 by broth microdilution method
[16] = tested on: Staphylococcus aureus; experiment: Antibacterial activity against Staphylococcus aureus 4116 producing betalactamase PC1 by broth microdilution method
[17] = tested on: Klebsiella pneumoniae; experiment: Antibacterial activity against Klebsiella pneumoniae 4238 producing beta lactamase SHV1 by broth microdilution method
[18] = tested on: Enterobacter cloacae; experiment: Antibacterial activity against Enterobacter cloacae 4081 producing beta lactamase AmpC (E2) by broth microdilution method
[19] = tested on: Enterobacter cloacae; experiment: Antibacterial activity against Enterobacter cloacae 4092 producing beta lactamase AmpC (E2) by broth microdilution method
[20] = tested on: Enterobacter cloacae; experiment: Antibacterial activity against Enterobacter cloacae 4080 producing beta lactamase AmpC (P99) by broth microdilution method
[21] = tested on: Enterobacter cloacae; experiment: Antibacterial activity against Enterobacter cloacae 908R producing beta lactamase AmpC by broth microdilution method
[22] = tested on: Staphylococcus aureus; experiment: Antibacterial activity against methicillin-susceptible Staphylococcus aureus
[23] = tested on: Staphylococcus aureus; experiment: Antibacterial activity against methicillin-resistant Staphylococcus aureus

SMILES: CO/N=C(\C(=O)N[C@@H]1C(=O)N2C(C(=O)[O-])=C(C[N+]3(C)CCCC3)CS[C@H]12)c1csc(N)n1
- MIC [1]: 0.25 µg/mL (≈ 0.52 µM)
- MIC [2]: 128 µg/mL (≈ 266 µM)
- MIC [3]: 0.12 µg/mL (≈ 0.25 µM)
- MIC [4]: 0.03 µg/mL (≈ 0.0624 µM)
- MIC [5]: 16 µg/mL (≈ 33.3 µM)
- MIC [6]: 32 µg/mL (≈ 66.6 µM)
- MIC [7]: 0.25 µg/mL (≈ 0.52 µM)
- MIC [8]: > 32 µg/mL
- MIC [9]: 8 µg/mL (≈ 16.6 µM)
- MIC [10]: 2 µg/mL (≈ 4.16 µM)
- MIC [11]: 32 µg/mL (≈ 66.6 µM)
- MIC [12]: 2 µg/mL (≈ 4.16 µM)
- MIC [13]: 0.12 µg/mL (≈ 0.25 µM)
- MIC [14]: 16 µg/mL (≈ 33.3 µM)
- MIC [15]: 4 µg/mL (≈ 8.32 µM)
- MIC [16]: 2 µg/mL (≈ 4.16 µM)
- MIC [17]: 0.25 µg/mL (≈ 0.52 µM)

SMILES: CC(C)(O/N=C(\C(=O)N[C@@H]1C(=O)N2C(C(=O)[O-])=C(C[n+]3ccccc3)CS[C@H]12)c1csc(N)n1)C(=O)O [CEFTAZIDIME]
- MIC [1]: 4 µg/mL (≈ 7.32 µM)
- MIC [2]: 64 µg/mL (≈ 117 µM)
- MIC [3]: 0.5 µg/mL (≈ 0.915 µM)
- MIC [18]: > 128 µg/mL
- MIC [4]: 1 µg/mL (≈ 1.83 µM)
- MIC [5]: 32 µg/mL (≈ 58.5 µM)
- MIC [6]: 32 µg/mL (≈ 58.5 µM)
- MIC [7]: 0.5 µg/mL (≈ 0.915 µM)
- MIC [8]: > 32 µg/mL
- MIC [9]: 2 µg/mL (≈ 3.66 µM)
- MIC [10]: 0.5 µg/mL (≈ 0.915 µM)
- MIC [11]: 32 µg/mL (≈ 58.5 µM)
- MIC [19]: 1 µg/mL (≈ 1.83 µM)
- MIC [12]: 4 µg/mL (≈ 7.32 µM)
- MIC [13]: 0.25 µg/mL (≈ 0.457 µM)
- MIC [20]: 64 µg/mL (≈ 117 µM)
- MIC [14]: 32 µg/mL (≈ 58.5 µM)
- MIC [15]: > 256 µg/mL
- MIC [16]: 4 µg/mL (≈ 7.32 µM)
- MIC [17]: 2 µg/mL (≈ 3.66 µM)
- MIC [21]: > 64 µg/mL

SMILES: Nc1nc(/C(=N/O)C(=O)N[C@@H]2C(=O)N3C(C(=O)O)=C(/C=C4\CCN([C@@H]5CCNC5)C4=O)CS[C@H]23)ns1 [CEFTOBIPROLE]
- MIC [1]: 0.015 µg/mL (≈ 0.0281 µM)
- MIC [2]: > 128 µg/mL
- MIC [3]: 0.5 µg/mL (≈ 0.935 µM)
- MIC [18]: 1 µg/mL (≈ 1.87 µM)
- MIC [4]: 0.03 µg/mL (≈ 0.0561 µM)
- MIC [5]: 16 µg/mL (≈ 29.9 µM)
- MIC [6]: 32 µg/mL (≈ 59.9 µM)
- MIC [7]: 0.25 µg/mL (≈ 0.468 µM)
- MIC [8]: > 32 µg/mL
- MIC [9]: 128 µg/mL (≈ 239 µM)
- MIC [10]: > 32 µg/mL
- MIC [11]: 16 µg/mL (≈ 29.9 µM)
- MIC [19]: 0.12 µg/mL (≈ 0.224 µM)
- MIC [12]: 4 µg/mL (≈ 7.48 µM)
- MIC [13]: 0.12 µg/mL (≈ 0.224 µM)
- MIC [20]: 2 µg/mL (≈ 3.74 µM)
- MIC [14]: > 128 µg/mL
- MIC [15]: 0.25 µg/mL (≈ 0.468 µM)
- MIC90 [22]: 0.5 µg/mL (≈ 0.935 µM)
- MIC [16]: 0.25 µg/mL (≈ 0.468 µM)
- MIC [17]: 0.5 µg/mL (≈ 0.935 µM)
- MIC90 [23]: 2 µg/mL (≈ 3.74 µM)
- MIC [21]: 4 µg/mL (≈ 7.48 µM)
